This test has as its target T1, MtAIH (Medicago truncatula, UniProt G7JT50).
T1 construct: gene AIH; ORF from codon 11 (leaf cDNA), pMCSG68, N-terminal His6-tag removed by TEV, Ser-Asn-Ala linker kept; E. coli BL21 Gold; homodimer (81 kDa by MALS)
In words: X-ray crystallography (cocrystallization), […] A. The test is classed as binding. The following applies: 10 mM ligand, Morpheus Screen, pH 6.5; active site; reaction product analog; bound in three of four chains.

Structures are written as SMILES.

T1 sequence (G7JT50 11-374): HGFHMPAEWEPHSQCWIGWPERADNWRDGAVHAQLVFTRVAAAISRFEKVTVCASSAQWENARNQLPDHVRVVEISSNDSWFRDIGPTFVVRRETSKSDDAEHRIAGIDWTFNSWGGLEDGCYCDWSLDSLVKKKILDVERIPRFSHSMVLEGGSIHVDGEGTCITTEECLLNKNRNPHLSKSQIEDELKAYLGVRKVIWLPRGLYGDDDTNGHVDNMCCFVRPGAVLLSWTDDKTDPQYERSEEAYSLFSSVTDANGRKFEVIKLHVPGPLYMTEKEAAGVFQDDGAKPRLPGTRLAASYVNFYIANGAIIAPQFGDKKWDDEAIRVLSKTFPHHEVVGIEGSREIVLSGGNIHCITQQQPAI

Turning to `NCCCCCC(N)=O` [AHX, 6-aminohexanamide], the “X-ray crystallography (cocrystallization), 2.20 A” value is “The MtAIH-AHX structure was obtained by cocrystallization and presents the bound AHX”.

These data come from article PMC6447857, “Structural Study of Agmatine Iminohydrolase From Medicago truncatula, the Second Enzyme of the Agmatine Route of Putrescine Biosynthesis in Plants” (Frontiers in Plant Science, 2019).
